Results taken from patent publication US5064862A, “Anticonvulsant method and formulations” (priority 1990, dated 1991).
Read-outs that look alike come from different tables or passages of the source.

Assays:
[1] = test system: subcutaneous Metrazole (scMet) induced convulsions; assay: Subcutaneous pentylenetetrazole (Metrazol) seizure threshold test (scMet) in mice, ip; details: Mus musculus, ip; for ED50: read-out: scMET ED50
Procedure: Protection in this test was defined as a failure to observe a single episode of clonic spasms of at least 5 second duration during a 30 minute period following adminstration of the test compound.

[2] = test system: neurologic deficit (rotorod); details: mouse, in vivo; for TD50: ip
Procedure: (§1) All tests were performed using male Carworth Farms number-one mice. Test solutions of all compounds were prepared in 30% polyethylene glycol 400 and animals were dosed intraperitoneally (ip) at 30 minutes prior to testing.
(§2) Neurological deficit was measured in mice using the rotorod test. The dosed animal was placed on a 1-inch diameter knurled plastic rod rotating at 6 rpm. Neurologic toxicity was defined as the failure of the animal to remain on the rod for 1 minute. The median anticonvulsant protency (ED50) and toxicity (TD50) were determined by the graphical method.

[3] = test system: maximal electroshock seizures (MES); details: ip; for MES ED50 / PI values (in words) / anti-MES / anticonvulsant activity (in words): mice; for MES PI (protective index = TD50/ED50): mouse, in vivo;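 as to all read-outs here: seizures induced by corneal electroshock, 60-cycle alternating current at 50 mA for 0.2 s, protection means no hind limb tonic extension, scored right after the shock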
Procedure: The preliminary screening was done at doses of the test compounds from 30 mg/kg up to 600 mg/kg adminstered ip in mice and evaluated against maximal electroshock seizures (MES) and subcutaneous Metrazole (scMet) induced convulsions and in the rotorod test for neurologic deficit.
as §1
Maximal electroshock seizures (MES) were elicited with a 60 cycle alternating current of 50 mA intensity delivered for 0.2 second via corneal electrodes. A drop of 0.9% saline was instilled in the eye prior to application of electrodes. The animals were examined and evaluated immediately after the electroshock for the occurrence of clonic, flexor tonic, or extensor tonic convulsions or death. Abolition of the hind limb tonic extension component of the seizure was defined as protection in the MES test. The ED50 was determined for the test compound as the dose which inhibited the occurrence of hind limb tonic convulsions in one half of the animals immediately after the electroshock as determined by graphical interpolation.
as §2

in vivo [4] = details: mouse, ip
Procedure: as §1, §2

in vivo [5] = details: mouse, ip; remark: listed apart in the source
Procedure: as §1

[6] = test system: neurologic deficit (rotorod); assay: Rotorod test for neurologic deficit in mice, ip; details: 30 mg/kg
Procedure: as §1, §2

[7] = ip, mice
Procedure: as §1

[8] = man; cited from earlier work
[9] = 0.5 h, read-out: scMet activity, 30 min
[10] = 4 h, read-out: scMet activity, 4 hrs

Structure (SMILES) | minimal effective dose [1, 9] [mg/kg] | minimal effective dose [1, 10] [mg/kg] | ED50 [1] [mg/kg] | TD50 [2] [mg/kg] | MES ED50 [3] [mg/kg] | PI values (in words) [3] | anti-MES / anticonvulsant activity (in words) [3] | MES PI (protective index = TD50/ED50) [3] | other results
Cc1ccc(NC(=O)c2ccc(N)cc2)cc1C [Example 9] | 300 | 300 | 80.8 | 194.14 | 42.31 | higher PI values | good anti-MES activity | 4.59 | 
Cc1cc(C)cc(NC(=O)c2ccc(N)cc2)c1 [Example 10] | > 600 | > 600 |  |  |  |  | good anti-MES activity |  | 
CC(C)c1ccccc1NC(=O)c1ccc(N)cc1 [Example 11] | 600 |  |  | 708.98 | 81.52 | highest PI values |  | 8.70 | 
Cc1cccc(C(C)C)c1NC(=O)c1ccc(N)cc1 [Example 12] | > 600 | > 600 |  | > 1500.0 | 86.13 | highest PI values | more potent | > 17.42 | rotorod toxicity at 600 mg/kg [2]: no rotorod toxicity; TD50 (in vivo [4]): 1500 to 2000 mg/kg
CCc1cccc(C(C)C)c1NC(=O)c1ccc(N)cc1 [Example 13] | 300 | > 600 |  | 49.10 | 16.67 |  | more potent | 2.95 | LD50 (in vivo [5]): < 600 mg/kg; animals with rotorod toxicity at 30 mg/kg [6]: 1 out of 4
Cc1cccc(C)c1NC(=O)c1cccc(N)c1 [II-1, 3-amino-N-(2,6-dimethylphenyl) benzamide] |  |  |  |  | 13.48 |  |  | 21.11 | TD50 (in vivo [4]): 285 mg/kg
CCC1(c2ccccc2)C(=O)NC(=O)NC1=O [Phenobarbital, reference compound] |  |  | 13.2 |  | 21.78 |  |  |  | lethal dose (LD50) [7]: 264.70 mg/kg
O=C1NC(=O)C(c2ccccc2)(c2ccccc2)N1 [Phenytoin] |  |  |  |  |  |  |  |  | plasma level at which ataxia is obvious [8]: 30000 ng/mL; plasma level at which lethargy is apparent [8]: about 40 mcg/ml; plasma level at which nystagmus is seen [8]: around 20 mcg/ml; plasma level controlling seizures [8]: ≥ 10 µg/mL
CCCC(CCC)C(=O)O [Valproic Acid, reference compound] |  |  | 149 |  |  |  |  |  | LD50 (in vivo [5]): 1100 mg/kg
